Laboratory results reported in patent publication US8426408B2, “Pyrimidine inhibitors of kinases” (AbbVie Inc., priority 2009, dated 2013).

Tests used:
NCI-H1299 cells = experiment: Induction of polyploidy in H1299; type: cell-based, Human; conditions: Homo sapiens; NCI-H1299, 48 hours; read-out: EC15 (concentration of inhibitor necessary to induce polyploidy in 15% of cells)
Method in brief: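 NCI-H1299 cells in RPMI 1640/10% FCS were treated with inhibitor concentrations in duplicate for 48 h at 37 C, then formalin-fixed and Hoechst-stained. Nuclear area was measured by high-content imaging, with polyploid (≥4N) defined as >750 μ^2. EC15 was derived by least-squares fit of log dose-response.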

KDR [1] = biological target: T1, KDR (Homo sapiens, UniProt P35968); experiment: KDR HTRF in vitro kinase assay; type: biochemical; design: purified enzyme (His6-KDR 789-1354, MW 63 kD); His6 (N); conditions: 1 mM ATP; read-out: KDR enzyme inhibition data (Ki)
Method in brief: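 His6-KDR 789-1354 (7 ng/well) with 0.5 μM biotinylated peptide substrate and 1 mM ATP in HEPES pH 7.1, MgCl2/MnCl2, 60 min at room temperature. EDTA-quenched, detected by streptavidin-XL-665 plus Eu-kryptate anti-phosphotyrosine HTRF after 3 h; IC50 from 620/665 nm ratio.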
Target sequence in this assay (P35968 789-1354): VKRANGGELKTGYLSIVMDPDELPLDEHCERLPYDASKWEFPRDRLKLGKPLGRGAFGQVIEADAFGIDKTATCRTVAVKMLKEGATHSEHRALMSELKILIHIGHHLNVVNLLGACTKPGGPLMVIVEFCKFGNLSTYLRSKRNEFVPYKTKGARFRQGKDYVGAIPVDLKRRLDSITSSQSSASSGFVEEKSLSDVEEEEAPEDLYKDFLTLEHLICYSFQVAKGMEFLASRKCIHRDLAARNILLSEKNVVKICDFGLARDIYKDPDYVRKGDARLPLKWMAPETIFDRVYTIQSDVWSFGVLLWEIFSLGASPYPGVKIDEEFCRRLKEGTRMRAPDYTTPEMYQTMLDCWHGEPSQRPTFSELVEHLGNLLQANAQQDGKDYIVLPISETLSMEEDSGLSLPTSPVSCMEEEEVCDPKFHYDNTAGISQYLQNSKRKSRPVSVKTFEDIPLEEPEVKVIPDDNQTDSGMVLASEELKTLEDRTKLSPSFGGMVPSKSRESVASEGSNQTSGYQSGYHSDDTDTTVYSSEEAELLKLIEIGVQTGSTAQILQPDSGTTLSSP

KDR [2] = biological target: T1, KDR; experiment: KDR cellular assay (KDR receptor phosphorylation ELISA); type: cell-based; design: expressed in transfected cells; host or cells: 3T3 (embryonic mouse) cells; conditions: KDR transfected 3T3 (embryonic mouse) cells, VEGF stimulated; read-out: IC50 inhibition of KDR phosphorylation
Method in brief: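 KDR-transfected mouse 3T3 cells treated 20 min at 37° C with half-log compound dilutions, then stimulated 10 min with VEGF (100 ng/ml solution). Lysates captured on anti-KDR plates; phosphorylation by biotin antibody/streptavidin-HRP ELISA at 450 nm. IC50 by non-linear regression.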
Target sequence in this assay (P35968 20-1356): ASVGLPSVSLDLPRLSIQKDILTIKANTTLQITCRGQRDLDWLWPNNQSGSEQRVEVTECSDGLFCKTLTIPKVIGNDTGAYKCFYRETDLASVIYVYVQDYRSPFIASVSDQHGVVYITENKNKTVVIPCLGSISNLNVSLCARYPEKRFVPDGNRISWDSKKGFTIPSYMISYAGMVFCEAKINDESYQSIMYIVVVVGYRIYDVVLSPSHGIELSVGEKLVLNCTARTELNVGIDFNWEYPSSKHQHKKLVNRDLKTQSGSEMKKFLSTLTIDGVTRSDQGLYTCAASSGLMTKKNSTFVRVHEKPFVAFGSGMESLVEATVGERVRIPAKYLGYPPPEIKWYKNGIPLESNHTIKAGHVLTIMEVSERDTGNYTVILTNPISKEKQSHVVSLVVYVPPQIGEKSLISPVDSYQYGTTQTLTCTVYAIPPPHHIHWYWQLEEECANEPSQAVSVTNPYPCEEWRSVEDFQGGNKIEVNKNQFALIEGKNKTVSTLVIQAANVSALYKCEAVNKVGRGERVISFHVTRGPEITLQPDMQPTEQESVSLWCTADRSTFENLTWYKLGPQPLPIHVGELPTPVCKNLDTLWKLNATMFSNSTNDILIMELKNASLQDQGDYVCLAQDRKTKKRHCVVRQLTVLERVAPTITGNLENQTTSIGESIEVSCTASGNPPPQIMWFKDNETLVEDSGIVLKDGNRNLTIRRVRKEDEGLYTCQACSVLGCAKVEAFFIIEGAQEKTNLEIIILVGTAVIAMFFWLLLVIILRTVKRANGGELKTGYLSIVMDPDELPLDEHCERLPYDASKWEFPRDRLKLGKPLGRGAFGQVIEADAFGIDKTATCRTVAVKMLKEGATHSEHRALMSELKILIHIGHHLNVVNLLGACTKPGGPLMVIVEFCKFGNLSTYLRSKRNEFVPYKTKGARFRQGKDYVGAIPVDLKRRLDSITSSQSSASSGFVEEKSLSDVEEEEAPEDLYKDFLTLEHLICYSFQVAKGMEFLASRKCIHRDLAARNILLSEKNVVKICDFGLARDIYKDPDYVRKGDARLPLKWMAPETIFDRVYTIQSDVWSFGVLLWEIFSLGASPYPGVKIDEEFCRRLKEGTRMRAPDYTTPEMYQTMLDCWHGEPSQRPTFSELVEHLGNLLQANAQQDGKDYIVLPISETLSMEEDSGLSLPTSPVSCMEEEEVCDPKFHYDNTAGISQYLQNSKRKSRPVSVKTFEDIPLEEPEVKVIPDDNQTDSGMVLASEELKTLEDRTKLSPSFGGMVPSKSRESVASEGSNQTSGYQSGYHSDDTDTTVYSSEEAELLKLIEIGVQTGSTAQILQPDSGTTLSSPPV

Ki (KDR [1]) [nM]	IC50 (KDR [2]) [nM]	SMILES	EC15 (NCI-H1299 cells) [nM]
< 100	< 100	CN1CCN(CCn2cc(Nc3ncc(Br)c(N[C@H]4[C@@H](C(N)=O)[C@@H]5C=C[C@H]4C5)n3)cn2)CC1 [Example 94, (1S,2S,3R,4R)-3-{[5-bromo-2-({1-[2-(4-methylpiperazin-1-yl)ethyl]-1H-pyrazol-4-yl}amino)pyrimidin-4-yl]amino}bicyclo[2.2.1]hept-5-ene-2-carboxamide]	< 100
< 100	< 100	NC(=O)[C@@H]1[C@H](Nc2nc(Nc3cnn(C4CCNCC4)c3)ncc2Br)[C@H]2C=C[C@@H]1C2 [Example 95, (1S,2S,3R,4R)-3-[(5-bromo-2-{[1-(piperidin-4-yl)-1H-pyrazol-4-yl]amino}pyrimidin-4-yl)amino]bicyclo[2.2.1]hept-5-ene-2-carboxamide]	100 to 1000
< 100	< 100	COCCn1cc(Nc2ncc(Cl)c(N[C@H]3[C@@H](C(N)=O)[C@@H]4C=C[C@H]3C4)n2)cn1 [Example 96, (1S,2S,3R,4R)-3-[(5-chloro-2-{[1-(2-methoxyethyl)-1H-pyrazol-4-yl]amino}pyrimidin-4-yl)amino]bicyclo[2.2.1]hept-5-ene-2-carboxamide]	100 to 1000
